Where two headings read alike, the source gives them in different places.
Legend:
in vitro = conditions: human
[1] = system: SH-SY5Y neuroblastoma cell line; assay: cytotoxicity assay against SH-SY5Y neuroblastoma cells; conditions: SH-SY5Y cells; lowest compound concentration 0.37 μM
[2] = as above; conditions: human
[3] = system: P. falciparum 3D7 strain stage III–V gametocytes; assay: alamarBlue gametocyte viability assay, 1,536-well plate format; assay type: cell-based, Plasmodium falciparum
[4] = system: P. falciparum gametocytes; conditions: read-out: IC50 reported in 96-well plate format; cited from earlier work
[5] = Plasmodium falciparum, 3D7, 72 h, read-out: IC50 (gametocyte assay)

Compound: Clc1ccccc1C(c1ccccc1)(c1ccccc1)n1ccnc1 [Clotrimazole]
- IC50 (in vitro): 9.48 µM

Compound: c1ccc2c(c1)[I+]c1ccccc1-2 [Dibenziodolium]
- cytotoxicity at lowest compound concentration tested [1]: completely cytotoxic

Compound: c1cnc2c(c1)ccc1cccnc12 [Phenanthroline, 1,10-phenanthroline]
- IC50 ([2]; SH-SY5Y neuroblastoma cells): 5.45 µM
- IC50 [3, 5]: 2.19 µM

Compound: CC[C@H](C)[C@H](NC(=O)[C@H]([C@@H](C)CC)N(C)C(C)=O)C(=O)N[C@H](C(=O)N[C@@H](CC(C)C)C(=O)[C@@]1(C)CO1)[C@@H](C)O [epoxomicin]
- IC50 [4]: 0.00216 µM
- IC50 ([3]; seeding density 10 k gametocytes/well, 1,536-well plate): 0.0013 µM
- IC50 ([3]; seeding density 20 k gametocytes/well, 1,536-well plate): 0.0018 µM
- IC50 ([3]; seeding density 27.5 k gametocytes/well, 1,536-well plate): 0.0021 µM

Compound: CNc1ccc2oc(C[C@H]3O[C@@]4(CC[C@H]3C)O[C@H]([C@H](C)C(=O)c3ccc[nH]3)[C@H](C)C[C@H]4C)nc2c1C(=O)O [Calcimycin]
- IC50 [2]: 1.37 µM
- IC50 [3, 5]: 1.96 µM

Compound: CCN(CC)C(=S)SSC(=S)N(CC)CC [Antabuse]
- IC50 (in vitro): 13.4 µM
- IC50 [3, 5]: 0.25 µM

Compound: Cc1cc(NC2CCCCC2)nc(-n2nc(C)cc2C)n1 [CyPPA, Cyclohexyl-[2-(3,5-dimethyl-pyrazol-1-yl)-6-methyl-pyrimidin-4-yl]-amine]
- IC50 ([2]; SH-SY5Y neuroblastoma cells): 9.16 µM
- IC50 [3, 5]: 1.17 µM

— article PMC3640759 (Molecular and biochemical parasitology, 2013)
